# Values of other authors as cited in patent US20160022604A1, “DIRECTLY COMPRESSED OSPEMIFENE COMPOSITIONS” (CADILA HEALTHCARE LIMITED, priority 2014, published 2016).
# Key:
# [1] = experimental models and human volunteers
# [2] = classical hormonal tests
compound,measurement,setting,value
"OCCOc1ccc(/C(=C(/CCCl)c2ccccc2)c2ccccc2)cc1 [Ospemifene, 2-[4-(4-chloro-1,2-diphenylbut-1-enyl)phenoxy]ethanol]",total and LDL cholesterol levels,[1],decreases
same,estrogenic and antiestrogenic effects,[2],relatively weak
